Values of other authors in patent US8338072B2, “Resist composition, resist pattern forming process, and method for manufacturing semiconductor device” (Fujitsu Limited, priority 2006, dated 2012).

details: Table 1, additives 4A to 4F

pKa	Compound
4.57	CC(O)C(=O)O (stereo not shown) [Example 4B, Lactic acid]
7.12	NCCN [Example 4D, Ethylenediamine]
10.85	CCCCCCN [Example 4E, Hexylamine]
10.93	CCCCCN [Example 4F, Pentylamine]

same assay, conditions: values for example additives

pKa	Compound
8.63	NCc1ccccc1O [2-hydroxybenzylamine]
7.12	NCCN [Example 4D, Ethylenediamine]
10.93	CCCCCN [Example 4F, Pentylamine]
4.57	CCCC(=O)O [butyric acid]
10.56	NC1CCCC1 [cyclopentylamine]
13.65	c1ccc(Nc2ccccc2)cc1 [diphenylamine]
3.07	O=C(O)/C=C/C(=O)O [fumaric acid]
10.93	CCCN [propylamine]
3.99	O=C(O)CCC(=O)O [succinic acid]
5.17	CCCCC(=O)O [valeric acid]
5.80-6.10	methylpyridine

Compound	pKa
NC1CCCCC1 [cyclohexylamine]	10.62
